Reference: ChEMBL document CHEMBL1201862, “PubChem BioAssay data set” (2004)
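Following 48 hours of exposure in 96-well plates, responses at five concentrations were used to interpolate endpoints linearly. GI50 = concentration required for 50% inhibition of growth.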 Activity calls are given as the source filed them. No stated cut-off is given here; in the data, active = GI50 up to about 1.1 µM and inactive = higher.

Key:
Assay in all cases: NCI-60 cell line screen, 48 h
[1] = tested on: Hs-578T
[2] = tested on: 786-0
[3] = tested on: UACC-257
[4] = tested on: RXF 393
[5] = tested on: OVCAR-8
[6] = tested on: HT-29
[7] = tested on: SK-MEL-2
[8] = tested on: PC-3
[9] = tested on: SNB-75
[10] = tested on: MOLT-4
[11] = tested on: NCI-H226
[12] = tested on: UACC-62
[13] = tested on: SK-MEL-5
[14] = tested on: KM12
[15] = tested on: HCC 2998
[16] = tested on: DU-145
[17] = tested on: NCI-H460
[18] = tested on: TK-10
[19] = tested on: MDA-N
[20] = tested on: NCI-H522

| Structure (SMILES) | GI50 [1] | GI50 [2] | GI50 [3] | GI50 [4] | GI50 [5] | GI50 [6] | GI50 [7] | GI50 [8] | GI50 [9] | GI50 [10] | GI50 [11] | GI50 [12] | GI50 [13] | GI50 [14] | GI50 [15] | GI50 [16] | GI50 [17] | GI50 [18] | GI50 [19] | GI50 [20] |
| --- | --- | --- | --- | --- | --- | --- | --- | --- | --- | --- | --- | --- | --- | --- | --- | --- | --- | --- | --- | --- |
| CC(C)(C)OC(=O)N1C(=O)C2CCCC21 (stereo not drawn) | > 100 µM (inactive) | > 100 µM (inactive) | > 100 µM (inactive) | > 100 µM (inactive) | > 100 µM (inactive) | > 100 µM (inactive) | > 100 µM (inactive) | > 100 µM (inactive) | > 100 µM (inactive) | > 100 µM (inactive) | > 100 µM (inactive) | > 100 µM (inactive) | > 100 µM (inactive) | > 100 µM (inactive) | > 100 µM (inactive) | > 100 µM (inactive) | > 100 µM (inactive) |  |  |  |
| O=C(O)CCCOc1cc(-c2ccccc2F)nc2cc3c(cc12)OCO3 |  | 6.38 µM (inactive) |  |  | 5.66 µM (inactive) | 4.54 µM (inactive) | 4.99 µM (inactive) | 3 µM (inactive) | 6.56 µM (inactive) | 5.9 µM (inactive) |  | 6.17 µM (inactive) |  | 4.19 µM (inactive) | 46.1 µM (inactive) | 5.75 µM (inactive) |  | > 100 µM (inactive) | 1.72 µM (inactive) |  |
| COCN1COCN/C1=N\C#N |  | > 100 µM (inactive) | > 100 µM (inactive) | 83.2 µM (inactive) | > 100 µM (inactive) | > 100 µM (inactive) | > 100 µM (inactive) |  | > 100 µM (inactive) | > 100 µM (inactive) | > 100 µM (inactive) | > 100 µM (inactive) | > 100 µM (inactive) | > 100 µM (inactive) | > 100 µM (inactive) |  | > 100 µM (inactive) | > 100 µM (inactive) |  | > 100 µM (inactive) |
| Cn1c(N)[n+](C(=O)OCc2ccccc2)c(=O)c2c1ncn2C(=O)OCc1ccccc1 |  | 30.1 µM (inactive) | > 100 µM (inactive) |  | > 100 µM (inactive) | > 100 µM (inactive) | > 100 µM (inactive) |  | 24 µM (inactive) | > 100 µM (inactive) | 18 µM (inactive) | > 100 µM (inactive) | > 100 µM (inactive) | > 100 µM (inactive) | > 100 µM (inactive) |  | > 100 µM (inactive) | 46.7 µM (inactive) |  | 30.9 µM (inactive) |
| Cc1cccc(NC2=NCCO2)c1Cl | > 100 µM (inactive) | > 100 µM (inactive) | > 100 µM (inactive) | > 100 µM (inactive) | > 100 µM (inactive) | > 100 µM (inactive) |  |  | > 100 µM (inactive) | > 100 µM (inactive) | > 100 µM (inactive) | > 100 µM (inactive) | > 100 µM (inactive) | > 100 µM (inactive) | > 100 µM (inactive) | > 100 µM (inactive) | > 100 µM (inactive) | > 100 µM (inactive) |  |  |
| CCOc1ccccc1NC(=O)CCc1nnc2s/c(=C\CCc3ccccc3)c(=O)n12 |  | > 100 µM (inactive) | > 100 µM (inactive) | > 100 µM (inactive) | > 100 µM (inactive) | > 100 µM (inactive) | > 100 µM (inactive) |  | > 100 µM (inactive) | > 100 µM (inactive) | > 100 µM (inactive) | > 100 µM (inactive) | > 100 µM (inactive) | > 100 µM (inactive) | > 100 µM (inactive) |  | > 100 µM (inactive) | > 100 µM (inactive) |  | > 100 µM (inactive) |
| CC(C)(C)OC(=O)NCC(C#N)CNC(=O)OC(C)(C)C | > 100 µM (inactive) | > 100 µM (inactive) | > 100 µM (inactive) | > 100 µM (inactive) | > 100 µM (inactive) |  |  | > 100 µM (inactive) |  | > 100 µM (inactive) | > 100 µM (inactive) | > 100 µM (inactive) | > 100 µM (inactive) | > 100 µM (inactive) | > 100 µM (inactive) | > 100 µM (inactive) | > 100 µM (inactive) | > 100 µM (inactive) |  | > 100 µM (inactive) |
| FC(F)(F)C12C34C=CC5(CCC6(C=CC1(CC3)O6)C52C(F)(F)F)O4 (stereo not drawn) |  | > 100 µM (inactive) | > 100 µM (inactive) | 93.5 µM (inactive) | > 100 µM (inactive) | > 100 µM (inactive) | > 100 µM (inactive) |  |  | > 100 µM (inactive) | > 100 µM (inactive) |  |  | > 100 µM (inactive) | > 100 µM (inactive) |  | > 100 µM (inactive) | > 100 µM (inactive) |  | > 100 µM (inactive) |
| Nc1ccc(-c2cc(C(=O)Nc3nccs3)nc(S)n2)cc1 |  | > 100 µM (inactive) | > 100 µM (inactive) | > 100 µM (inactive) | > 100 µM (inactive) | > 100 µM (inactive) | > 100 µM (inactive) |  | > 100 µM (inactive) | > 100 µM (inactive) | > 100 µM (inactive) | > 100 µM (inactive) | > 100 µM (inactive) | > 100 µM (inactive) |  |  |  | > 100 µM (inactive) |  | > 100 µM (inactive) |
| CC[C@]1(O)C[C@H]2CN(CCc3c([nH]c4ccccc34)[C@@](C(=O)OC)(c3cc4c(cc3OC)N(C)[C@H]3[C@@](O)(C(=O)OC)[C@H](OC(C)=O)[C@]5(CC)C=CCN6CC[C@]43[C@@H]65)C2)C1 |  | 0.000964 µM (active) |  |  | 0.00129 µM (active) | 0.000408 µM (active) | 0.000762 µM (active) | 0.000412 µM (active) |  | 0.000736 µM (active) | 0.00115 µM (active) | 0.000373 µM (active) | 0.000354 µM (active) | 0.000493 µM (active) | 0.000959 µM (active) | 0.000395 µM (active) | 0.000629 µM (active) |  | 0.000476 µM (active) | 0.000309 µM (active) |
| COC(=O)C(=O)C(C(=O)C=C(C)C)C(=O)C(=O)Nc1cccc(C(C)=O)c1 (stereo not drawn) |  | > 100 µM (inactive) | > 100 µM (inactive) | > 100 µM (inactive) | > 100 µM (inactive) | > 100 µM (inactive) | > 100 µM (inactive) |  | > 100 µM (inactive) | > 100 µM (inactive) | > 100 µM (inactive) | > 100 µM (inactive) | > 100 µM (inactive) | > 100 µM (inactive) | > 100 µM (inactive) |  | > 100 µM (inactive) | > 100 µM (inactive) |  | > 100 µM (inactive) |
| CN1C(=O)N(C)C(N2CCCC2)c2c1nc1ccccn1c2=O (stereo not drawn) |  | 97.9 µM (inactive) | 50.7 µM (inactive) | 49 µM (inactive) | > 100 µM (inactive) | > 100 µM (inactive) | 29.7 µM (inactive) |  | 45.9 µM (inactive) | > 100 µM (inactive) | > 100 µM (inactive) | 67 µM (inactive) |  | > 100 µM (inactive) | 76.9 µM (inactive) |  | 76.4 µM (inactive) | > 100 µM (inactive) |  | 61 µM (inactive) |
| COCn1cnc2c(=O)n(-c3ccc(OC)cc3)c(=S)n(-c3ccc(OC)cc3)c21 |  | > 100 µM (inactive) | > 100 µM (inactive) | > 100 µM (inactive) | > 100 µM (inactive) | > 100 µM (inactive) | > 100 µM (inactive) | > 100 µM (inactive) | > 100 µM (inactive) | > 100 µM (inactive) | > 100 µM (inactive) | > 100 µM (inactive) | > 100 µM (inactive) | > 100 µM (inactive) | > 100 µM (inactive) | > 100 µM (inactive) | > 100 µM (inactive) | > 100 µM (inactive) |  | > 100 µM (inactive) |
| CCNc1nnc(CSc2nc(-c3ccccc3)c(-c3ccccc3)[nH]2)s1 |  | 24.4 µM (inactive) | 17.3 µM (inactive) |  | 14 µM (inactive) | 19.6 µM (inactive) | 20.8 µM (inactive) |  | 23 µM (inactive) | 20.5 µM (inactive) | 13.4 µM (inactive) |  | 11.8 µM (inactive) | 9.38 µM (inactive) |  |  | 24.9 µM (inactive) | 18.5 µM (inactive) |  | 19.9 µM (inactive) |
| O=C1C=CC(S(=O)(=O)C2=C/C(=C/Nc3ccc(Cl)cc3)C(=O)C=C2)=C/C1=C/Nc1ccc(Cl)cc1 |  | > 100 µM (inactive) | > 100 µM (inactive) | > 100 µM (inactive) | > 100 µM (inactive) | > 100 µM (inactive) | > 100 µM (inactive) |  | 47.6 µM (inactive) | > 100 µM (inactive) | > 100 µM (inactive) | > 100 µM (inactive) | > 100 µM (inactive) | > 100 µM (inactive) | > 100 µM (inactive) |  | > 100 µM (inactive) | > 100 µM (inactive) |  | > 100 µM (inactive) |
| COC(=O)C(=O)Cc1nc2ccccc2s1 |  | > 100 µM (inactive) | > 100 µM (inactive) | > 100 µM (inactive) | > 100 µM (inactive) | > 100 µM (inactive) | > 100 µM (inactive) |  | > 100 µM (inactive) | > 100 µM (inactive) | > 100 µM (inactive) | > 100 µM (inactive) | > 100 µM (inactive) |  | > 100 µM (inactive) |  |  | > 100 µM (inactive) |  | > 100 µM (inactive) |
| N#C/N=C(/N)NCc1ccccc1 |  | > 100 µM (inactive) | > 100 µM (inactive) |  | > 100 µM (inactive) | > 100 µM (inactive) | > 100 µM (inactive) |  | > 100 µM (inactive) | > 100 µM (inactive) | > 100 µM (inactive) |  | > 100 µM (inactive) | > 100 µM (inactive) | 23.4 µM (inactive) |  | > 100 µM (inactive) | > 100 µM (inactive) |  | > 100 µM (inactive) |
| Cc1ccc(S(=O)(=O)NC(C)C(=O)O)cc1 (stereo not drawn) |  | > 100 µM (inactive) | > 100 µM (inactive) | > 100 µM (inactive) | > 100 µM (inactive) | > 100 µM (inactive) | > 100 µM (inactive) |  | > 100 µM (inactive) | > 100 µM (inactive) | > 100 µM (inactive) | > 100 µM (inactive) | > 100 µM (inactive) | > 100 µM (inactive) | > 100 µM (inactive) |  | > 100 µM (inactive) | > 100 µM (inactive) |  | > 100 µM (inactive) |
